Publication PMC3923314 (Biomacromolecules, 2013)

Key:
normal rat striatum = test: Convection-enhanced delivery; format: in vivo; settings: CED, 20 μl, DOX 0.2 mg/ml, Sprague Dawley rats, a week after infusion
[1] = after injection of free DOX; cited from earlier work

For `COc1cccc2c1C(=O)c1c(O)c3c(c(O)c1C2=O)C[C@@](O)(C(=O)CO)C[C@@H]3O[C@H]1C[C@H](N)[C@H](O)[C@H](C)O1` [free DOX, doxorubicin], the “toxicity to brain tissue (H&E staining)” value (normal rat striatum) is listed as “significant tissue damage” and the “clearance time from blood circulation” value [1] is listed as “tens of minutes”.
